Data set [1] has as its system FL1^+ cells (glioma-initiating cells, gliomasphere cultures). Briefly: in vitro recurrence assay (treatment then recovery), viable FL1+ cells by FACS. The class given is cell-based, human. As to conditions: for rating as anti-CSC agent: in vitro recurrence assay criteria; for number of viable FL1^+ cells: temsirolimus (1 μM elsewhere in the source), 5 μM cyclopamine, 5 μM DAPT; for killing of FL1^+ cells: 5 μM, exposure along 20 days; for killing of FL1^+ cell population by inhibition of mitochondrial complex: FIG. 6, 5 μM. The text has this: In contrast to other methods, which preferentially use cancer cell lines and stem cell marker like CD133 as a read-out of stemness, the Applicants' technology relies on primary cell cultures derived from human specimen and on a simple and unbiased detection of CICs independently of the use of any marker. Thus Applicants took advantage of such methodology to design and develop an in vitro recurrence assay to screen and validate potential therapeutic agents for eradicating cancer stem cells in glioma. […] The novelties here reside on the read-out of stemness used for testing the efficiency of any drug and on the possibility to identify specific anti-CSC agent.
Basically, any agent or inhibitor would be considered as an efficient anti-CSC agent if it fulfils the following criteria:
• 1) a viability of GICs (FL1^+ cells) decreases for more than 50% during the exposure to said agent or inhibitor during a maximum of 20 days, • 2) a recovery of GICs (FL1^+ cells) is less than 0.2 fold during the recovery phase of a maximum of 20 days, and • 3) the viability of normal brain cells is sustainable and recoverable during and after the exposure to the said agent or inhibitor.
a) Providing a cancer stem cell sample;
b) Treating the cancer stem cell sample provided under (a) with an agent;
c) Incubating the treated stem cell sample in a stem cell culture medium for an incubation period without treatment;
d) Selecting the viable cell population from the stem cell sample incubated under step (c); […]
For orientation: A flow cytometer gives signals particle by particle.

The next data set has as its system FL1^+ cells. Briefly: effect of exogenous lactate addition on FL1+ cells. The class given is cell-based, human. As to conditions: exogeneous lactate along 10 days. How it is done: A: Levels of metabolite (LAC: lactate, PYR: pyruvate, GLUC: glucose) for FL1^+ and FL1^0 cells; B & C: Effect of lactate addition (LAC) on FL1^+ cell morphology by phase contrast imaging (B) and on the percentage of FL1^0 cells (C). Non treated (NT); Scale bar: […]. D: Level of active Lactate Deshydrogenase (LD expressed in UI/L) in purified-FL1^+ and -FL1^0 cells.

A further data set deals with primary GBM-2 cells. The data set is described as follows: in vivo tumorigenicity of cells pretreated in vitro with inhibitors. Details: species or system mice. To be noted: GBM-2 cells treated 10 days in vitro prior implantation; for histological analyses for tumours: 17 weeks post-implantation; for state of mice implanted with pretreated cells: up to 17 weeks post-implantation. The source says:
Control mice had symptoms 4 weeks post-implantation and were sacrificed. […] Experiment was stopped 17 weeks post-implantation.

Data set [2] concerns primary glioma cells (FBS cultures).
Method: (§1) To test the specificity of such inhibitor towards CICs, normal brains cells and primary glioma cells (FBS cultures) were exposed to the above mentioned mitochondrial agents for 10 days.
(§2) For short term/dose response (48 hrs): Dissociated gliomasphere cells, adherent glioma and normal cells were plated at 10 cell/μl in DMEM-F12 Glutamax, BIT20% or B27 (1/50), Hepes 30 mM, Penicillin/streptomycin 1/1000, with reduced mitogens at 1 ng/ml or with reduced level of serum (2.5%).
(§3) For long term treatment/recovery assay (T10 and/or T20): Dissociated gliomasphere cells, adherent glioma and normal cells were plated at 2 cell/μl in DMEM-F12 Glutamax, Hepes 30 mM, BIT20% or B27 (1/50), Penicillin/streptomycin 1/1000, with reduced mitogens at 1 ng/ml or with reduced level of serum (2.5%).
(§4) For the recovery, cells were harvested, washed with PBS1x, and placed back into their standard media.

Method for normal brain cells: as §1, §2, §3, §4

As to `C#Cc1cccc(Nc2ncnc3cc(OCCOC)c(OCCOC)cc23)c1` [Erlotinib], the “time in which gliomasphere cultures recover from the treatment” value in data set [1] (all gliomasphere cultures, long term treatment, Erlotinib 5 μM) is listed as at most 10 days. The “GBM in which cell death is induced in more than 50% of FL1^+ cells” value in data set [1] (long term treatment, Erlotinib 5 μM) is 2/6.

For the molecule `CC1=C2C[C@H]3[C@@H](CC=C4C[C@@H](O)CC[C@@]43C)[C@@H]2CC[C@]12O[C@@H]1C[C@H](C)CN[C@H]1[C@H]2C` [cyclopamine, Cyclopamine], the “rating as anti-CSC agent” value in data set [1] was “inefficient”.

Regarding `C[C@H](NC(=O)Cc1cc(F)cc(F)c1)C(=O)N[C@H](C(=O)OC(C)(C)C)c1ccccc1` [DAPT, N—[N-(3,5-Difluorophenacetyl-L-alanyl)]-S-phenylglycine t-Butyl Ester], in data set [1], the “rating as anti-CSC agent” value is “inefficient” and the “number of viable FL1^+ cells” value is on record as “decrease of the number of viable FL1^+ cells”.

For `CC(O)C(=O)O` (centres unmarked) [lactate], in the data set on FL1^+ cells, the “effect on FL1^+ cell morphology” value is on record as “induce cell adhesion” and the “effect on cell phenotype (FL1^0 cells)” value was “commits cells towards the FL1^0 phenotype”.

Consider `CCCCCC[C@H]1C(=O)O[C@H](C)[C@H](NC(=O)c2cccc(NC=O)c2O)C(=O)O[C@@H](C)[C@@H]1OC(=O)CC(C)C` [Antimycin A], for which the “effect on normal brain cells” value in the data set on normal brain cells (FIG. 6) is recorded as “does not really affect the viability of normal brain cells”. The “viability of normal brain cells” value in the data set with normal brain cells (exposure for 10 days) was “allows normal brain cells to survive”.

On to `Cn1nnc2c(C(N)=O)ncn2c1=O` [temozolomide, Temozolomide], for which the viability at 25 µM in data set [1] (Homo sapiens, 480 h, temozolomide 25 μM, up to 20 days treatment, read-out: FL1^+ cells still viable after treatment) is above 30%.

As to `CO[C@H]1C[C@@H]2CC[C@@H](C)[C@@](O)(O2)C(=O)C(=O)N2CCCC[C@H]2C(=O)O[C@H]([C@H](C)C[C@@H]2CC[C@@H](OC(=O)C(C)(CO)CO)[C@H](OC)C2)CC(=O)[C@H](C)/C=C(\C)[C@@H](O)[C@@H](OC)C(=O)[C@H](C)C[C@H](C)/C=C/C=C/C=C/1C` [temsirolimus, Temsirolimus], in data set [1], the “rating as anti-CSC agent” value was “inefficient” and the “number of viable FL1^+ cells” value was “decrease of the number of viable FL1^+ cells”.

For `C=C(C)[C@H]1Cc2c(ccc3c2O[C@@H]2COc4cc(OC)c(OC)cc4[C@@H]2C3=O)O1` [Rotenone], in the data set with primary GBM-2 cells, the “histological analyses for tumours” value is “no visible tumours” and the “state of mice implanted with pretreated cells” value is “alive without symptoms”. Moreover, in data set [1], the “killing of FL1^+ cells” value was “kills all FL1^+ cell” and the “killing of FL1^+ cell population by inhibition of mitochondrial complex” value was “kills the FL1^+ cell population”.

In the case of `CN(C)CCCN1c2ccccc2CCc2ccc(Cl)cc21` [Anafranil, Clomipramine], in the data set on primary GBM-2 cells, the “histological analyses for tumours” value is “no visible tumours” and the “state of mice implanted with pretreated cells” value is given as “alive without symptoms”. Besides, the “killing of FL1^+ cells” value in data set [1] is on record as “kills all FL1^+ cell”.

For Oligomycin A/B, the “effect on glioma cells” value in data set [2] (FIG. 6) is “eradicate any kind of brain cells including normal and glioma ones”. In data set [2] (exposure for 10 days, FBS cultures), the “viability of primary glioma cells” value was “sensitive”. In addition, in data set [1], the “killing of FL1^+ cells” value is given as “kills all FL1^+ cell” and the “killing of FL1^+ cell population by inhibition of mitochondrial complex” value is reported as “kills the FL1^+ cell population”.

(Values after patent publication US8815844B2, “Mitochondrial activity inhibitors of cancer-initiating cells and use thereof” (Universite de Geneve, priority 2009, dated 2014).)
